Results on 22 compounds are retold here after PubChem BioAssay (NCI).

“And” between values parts separate entries of the source, which are not always exact repeats. Equal values may be shown once.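 Method: 48-hour compound exposure of cells in 96-well plates, five concentrations, linear interpolation of endpoints. Abbreviation: GI50, concentration required for 50% inhibition of growth. Definition used: TGI = concentration required for complete inhibition of growth.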 Bounds are passed on as bounds.

Test systems include A549 NSCLC; KM12 colon; MDA-MB-435; MDA-N; OVCAR-4 ovarian; OVCAR-8 ovarian; SK-MEL-2 melanoma; SNB-75 CNS; SW-620 colon; U251 CNS.
Experiment in all cases: growth of human tumour cells (NCI), 48 h

For `CCOc1ccc(/C=C2/C(=O)N=C(NC(C)=O)N2C)cc1`, the TGI in the assay with A549 NSCLC, in the assay on KM12 colon, in the assay with MDA-MB-435, with MDA-N, with OVCAR-4 ovarian and with OVCAR-8 ovarian was greater than 100 µM throughout. Further, the TGI with SK-MEL-2 melanoma, in the assay with SNB-75 CNS, in the assay on SW-620 colon and in the assay on U251 CNS was greater than 100 µM each time.
With `C=C([C@@]1(O)C[C@H]2[C@H](CCC2(OC)OC)[C@@H]2c3ccccc3O[C@@H]21)[Si](C)(C)C`, the TGI with A549 NSCLC, in the assay with KM12 colon, with MDA-MB-435, in the assay with MDA-N, in the assay with OVCAR-4 ovarian and with OVCAR-8 ovarian was greater than 100 µM in each case. Further, the TGI in the assay with SK-MEL-2 melanoma, in the assay on SNB-75 CNS, in the assay on SW-620 colon and with U251 CNS was greater than 100 µM each time.
On to `Nc1ccc(C(=O)N2CCC[C@H]2CO)c(N)c1`, for which the TGI with A549 NSCLC, with KM12 colon, in the assay on MDA-MB-435, in the assay with MDA-N, in the assay with OVCAR-4 ovarian and in the assay on OVCAR-8 ovarian was greater than 100 µM each time. Further, the TGI in the assay on SK-MEL-2 melanoma, in the assay on SNB-75 CNS, in the assay on SW-620 colon and in the assay with U251 CNS was greater than 100 µM throughout.
For `CCOC(=O)C1C2CCC1CC(=NNc1ccc([N+](=O)[O-])cc1[N+](=O)[O-])C2` (stereo not drawn), the TGI in the assay with A549 NSCLC, with KM12 colon, with MDA-MB-435, in the assay on MDA-N, with OVCAR-4 ovarian and in the assay on OVCAR-8 ovarian was greater than 50 µM in each case. The TGI in the assay with SK-MEL-2 melanoma, with SNB-75 CNS, in the assay on SW-620 colon and with U251 CNS was greater than 50 µM in each case.
For the compound `CC(C(O)Cc1ccccc1)N(C)N=Nc1ccc([N+](=O)[O-])cc1` (stereo not drawn), the TGI in the assay on A549 NSCLC is 72 µM; in the assay with KM12 colon it was 53.2 µM; with MDA-MB-435, 40.9 µM; in the assay with MDA-N, 39.7 µM; in the assay with OVCAR-4 ovarian, greater than 100 µM; with OVCAR-8 ovarian, 33.7 µM. For the same compound, the TGI in the assay with SK-MEL-2 melanoma was 40.6 µM; with SNB-75 CNS it was greater than 100 µM; with SW-620 colon, 60.6 µM; in the assay on U251 CNS, 38.5 µM.
Take `O=C1/C(=C/c2ccc(Cl)cc2)CSc2ccccc21`: the TGI was greater than 100 µM in the assay with A549 NSCLC; greater than 100 µM in the assay with KM12 colon; 20.7 µM in the assay with MDA-MB-435; 61.7 µM in the assay with MDA-N; 71.4 µM with OVCAR-4 ovarian; greater than 100 µM in the assay with OVCAR-8 ovarian. The TGI in the assay on SK-MEL-2 melanoma was 41.8 µM; in the assay with SNB-75 CNS it was 72.7 µM; in the assay with SW-620 colon, greater than 100 µM; with U251 CNS, 24.6 µM.
On to `C[N+]12CCCCC1C(CN1C(=O)Cc3c4ccccc4c(c4ccccc34)CC1=O)CCC2` (stereo not drawn), for which the TGI with A549 NSCLC, in the assay with KM12 colon, in the assay with MDA-MB-435, in the assay with MDA-N, with OVCAR-4 ovarian and in the assay on OVCAR-8 ovarian was greater than 100 µM throughout. Besides, the TGI in the assay with SK-MEL-2 melanoma, with SNB-75 CNS, in the assay with SW-620 colon and in the assay with U251 CNS was greater than 100 µM in each case.
`CC(=O)[C@@]1(O)CC[C@H]2[C@@H]3C[C@H](C)C4=CC(=O)C=C[C@]4(C)[C@@]3(F)[C@@H](O)C[C@@]21C`: the TGI in the assay on A549 NSCLC, in the assay with KM12 colon, in the assay with MDA-MB-435, in the assay on MDA-N, in the assay on OVCAR-4 ovarian and with OVCAR-8 ovarian was greater than 100 µM throughout. Further, the TGI was greater than 100 µM in the assay on SK-MEL-2 melanoma, greater than 91.9 µM in the assay on SNB-75 CNS, greater than 100 µM in the assay with SW-620 colon and greater than 100 µM in the assay on U251 CNS.
On to `CC12CCC(O)CC1CCC1C2CCC2(C)C(C(=O)CC(O)C(F)(F)F)CCC12` (stereo not drawn), for which the TGI in the assay with A549 NSCLC, in the assay on KM12 colon, in the assay on MDA-MB-435, in the assay with MDA-N, in the assay on OVCAR-4 ovarian and with OVCAR-8 ovarian was greater than 100 µM in each case. For the same compound, the TGI is greater than 100 µM in the assay on SK-MEL-2 melanoma, 81.1 µM in the assay on SNB-75 CNS, greater than 100 µM in the assay with SW-620 colon and greater than 100 µM in the assay on U251 CNS.
As for `CN(C)c1ccc(C2SCC(=O)N2c2ccc(Oc3ccc(Cl)cc3)c(Cl)c2)cc1` (stereo not drawn), the TGI came to 60.3 µM in the assay with A549 NSCLC; 40.9 µM in the assay on KM12 colon; 84 µM in the assay on MDA-MB-435; 58.5 µM with MDA-N; 69 µM in the assay on OVCAR-4 ovarian; 86.4 µM in the assay with OVCAR-8 ovarian. The TGI was 54.1 µM in the assay on SK-MEL-2 melanoma, 50.9 µM in the assay with SNB-75 CNS, greater than 100 µM with SW-620 colon and 53.9 µM with U251 CNS.
For `On1c(-c2ccccc2)nc2ccccc2c1=S`, the TGI in the assay with A549 NSCLC, in the assay with KM12 colon, with MDA-MB-435, with MDA-N, in the assay with OVCAR-4 ovarian and in the assay with OVCAR-8 ovarian was greater than 100 µM in each case. Further, the TGI with SK-MEL-2 melanoma is 42.8 µM; in the assay on SNB-75 CNS, greater than 100 µM; in the assay on SW-620 colon, greater than 100 µM; in the assay with U251 CNS, greater than 100 µM.
`Nc1ccc(S2(c3ccc(N)cc3)C=C(c3ccccc3)C(c3ccccc3)=C2)cc1`: the TGI is greater than 100 µM in the assay on A549 NSCLC; greater than 100 µM in the assay with KM12 colon; greater than 71.3 µM with MDA-MB-435; greater than 100 µM in the assay on MDA-N; greater than 25.2 µM with OVCAR-4 ovarian; 98.4 µM in the assay with OVCAR-8 ovarian. Moreover, the TGI in the assay on SK-MEL-2 melanoma was greater than 88.4 µM; with SNB-75 CNS, greater than 100 µM; with SW-620 colon, greater than 100 µM; in the assay with U251 CNS, greater than 100 µM.
`S=C(Nc1ccc2c(c1)oc1ccccc12)c1cccnc1`: the TGI in the assay with A549 NSCLC, with KM12 colon, with MDA-MB-435, in the assay with MDA-N, in the assay with OVCAR-4 ovarian and in the assay on OVCAR-8 ovarian was greater than 100 µM each time. The TGI is greater than 100 µM in the assay with SK-MEL-2 melanoma, 49.7 µM in the assay with SNB-75 CNS, greater than 100 µM with SW-620 colon and 89.7 µM in the assay on U251 CNS.
As for `CN(C)CCOC1(Cc2ccc(F)cc2)CCC(C(C)(C)C)CC1` (stereo not drawn), the TGI is 22 µM and 25.3 µM in the assay on A549 NSCLC; 19.3 µM and 18.1 µM with KM12 colon; 15 µM and 12.3 µM in the assay with MDA-MB-435; 17.3 µM and 10.5 µM with MDA-N; 15 µM and 22.5 µM with OVCAR-4 ovarian; 25.1 µM and 26.9 µM with OVCAR-8 ovarian. Also, the TGI in the assay on SK-MEL-2 melanoma was 24.4 µM and 8.73 µM; with SNB-75 CNS, 17.2 µM and 16.5 µM; with SW-620 colon it was 16.6 µM and 20.7 µM; in the assay with U251 CNS, 17.3 µM and 19.2 µM. Besides, the GI50 is 4.33 µM and 9.3 µM in the assay on OVCAR-4 ovarian; 10.8 µM and 2.78 µM with SK-MEL-2 melanoma; 4.03 µM and 8.49 µM with SNB-75 CNS.
In the case of `Nc1ccc(S(=O)(=O)Nc2nccs2)cc1`, the TGI in the assay on A549 NSCLC, in the assay on KM12 colon, with MDA-MB-435, in the assay with MDA-N, in the assay on OVCAR-4 ovarian and in the assay with OVCAR-8 ovarian was greater than 100 µM throughout. Also, the TGI in the assay on SK-MEL-2 melanoma, with SNB-75 CNS, with SW-620 colon and in the assay on U251 CNS was greater than 100 µM throughout.
In the case of `CC(C)(C)OC(=O)NCCCNC1(c2cc3ccccc3s2)CCCCC1`, the TGI is 27.2 µM with A549 NSCLC; 33.1 µM with KM12 colon; 28.7 µM in the assay with MDA-MB-435; 28.8 µM with MDA-N; 29.5 µM with OVCAR-4 ovarian; 35.1 µM in the assay on OVCAR-8 ovarian. In addition, the TGI was 37.6 µM in the assay with SK-MEL-2 melanoma, 30.2 µM with SNB-75 CNS, 40.9 µM in the assay with SW-620 colon and 74.8 µM in the assay with U251 CNS.
As for `C=CCOc1ccc(C2(O)c3ccccc3C3=NCCCN32)cc1` (stereo not drawn), the TGI is greater than 100 µM with A549 NSCLC; greater than 100 µM with KM12 colon; greater than 85.6 µM in the assay with MDA-MB-435; greater than 63.2 µM with MDA-N; greater than 100 µM in the assay with OVCAR-4 ovarian; greater than 100 µM in the assay on OVCAR-8 ovarian. Besides, the TGI in the assay on SK-MEL-2 melanoma was 47 µM; with SNB-75 CNS it was greater than 100 µM; with SW-620 colon, greater than 100 µM; in the assay with U251 CNS it was greater than 100 µM.
In the case of `CC(=O)O[C@H]1CC[C@@]2(C)C(=CC[C@H]3[C@@H]4C[C@H](N5CCOCC5)[C@H](OC(C)=O)[C@@]4(C)CC[C@@H]32)C1`, the TGI with A549 NSCLC, in the assay with KM12 colon, in the assay with MDA-MB-435, with MDA-N, with OVCAR-4 ovarian and in the assay with OVCAR-8 ovarian was greater than 100 µM throughout. In addition, the TGI with SK-MEL-2 melanoma, in the assay with SNB-75 CNS, in the assay with SW-620 colon and with U251 CNS was greater than 100 µM throughout.
With `Oc1cccc(-c2nc3cc(F)ccc3s2)c1`, the TGI in the assay with A549 NSCLC came out at 88.5 µM; in the assay with KM12 colon, 34.6 µM; with MDA-MB-435 it was 58.5 µM; with MDA-N, 61.8 µM; in the assay on OVCAR-4 ovarian, 52.3 µM; in the assay with OVCAR-8 ovarian, 51.2 µM. Moreover, the TGI is 43.2 µM in the assay with SK-MEL-2 melanoma, 39.4 µM in the assay with SNB-75 CNS, greater than 100 µM with SW-620 colon and 76.7 µM with U251 CNS.
For `O=[N+]([O-])/C(C(Cl)=C(Cl)Cl)=C(\N1CCCCC1)n1cncn1`, the TGI is 39.8 µM in the assay with A549 NSCLC; 40.8 µM with KM12 colon; 36.3 µM in the assay with MDA-MB-435; 32.8 µM with MDA-N; 36.7 µM with OVCAR-4 ovarian; 40.8 µM in the assay on OVCAR-8 ovarian. Also, the TGI in the assay with SK-MEL-2 melanoma came to 43.8 µM; with SNB-75 CNS, 49.4 µM; in the assay with SW-620 colon, 36.9 µM; in the assay with U251 CNS, 29.7 µM.
Consider `COc1ccc2c(c1)CCN1CCc3ccccc3CC21` (stereo not drawn), for which the TGI in the assay on A549 NSCLC, with KM12 colon, in the assay with MDA-MB-435, with MDA-N, with OVCAR-4 ovarian and in the assay on OVCAR-8 ovarian was greater than 100 µM throughout. In addition, the TGI in the assay on SK-MEL-2 melanoma, in the assay on SNB-75 CNS, with SW-620 colon and with U251 CNS was greater than 100 µM throughout.
For `Nc1[nH]nc2nc3ccc(C(F)(F)F)cc3nc12`, the TGI with A549 NSCLC was greater than 100 µM; in the assay with KM12 colon it was greater than 100 µM; with MDA-MB-435 it was greater than 100 µM; in the assay with MDA-N, greater than 100 µM; with OVCAR-4 ovarian, greater than 100 µM; in the assay on OVCAR-8 ovarian it was 46 µM. For the same compound, the TGI in the assay with SK-MEL-2 melanoma was 84.3 µM; in the assay with SNB-75 CNS it was 41.3 µM; in the assay with SW-620 colon it was 33.4 µM; with U251 CNS, greater than 100 µM.
